# Columns and labels:
# [1] = system: human retinal endothelial cells; assay: Actin stress fiber formation (Example 11), retinal cells; settings: for F-actin staining pattern: danazol 1 μM alone
# [2] = system: Akt; assay: Akt phosphorylation (CASE ELISA kit for AKT S473) in retinal endothelial cells; assay type: cell-based, human; settings: 2 hours
# Description: The cells were grown in a 25 cm^2 flask to near confluence in EGM-2 medium (Lonza, Walkersville, Md.) containing 2% fetal calf serum (Lonza). […] The plate was incubated at 37° C. with 5% CO2 for 24 hours. […] After this incubation, the cells were fixed immediately with 4% formaldehyde, refrigerated, and the extent of phosphorylation of Akt determined using the Akt Cellular Activation of Signaling ELISA Kit (CASE™ Kit for AKT 5473; SABiosciences, Frederick, Md.) following the manufacturer's protocols. The CASE™ Kit for AKT S473 quantifies the amount of activated (phosphorylated) Akt protein relative to total Akt protein in parallel assays using a conventional ELISA format with colorimetric detection. The Akt phosphorylation site is serine 473 and is recognized by one of the antibodies used in one of the two parallel assays to provide a measure of activated Akt protein. The other antibody used in the other parallel assay recognizes Akt to provide a measure of total Akt protein. Both primary antibodies are detected using a horseradish peroxidase-labeled secondary antibody. Addition of the manufacturer's Developing Solution for 10 minutes, followed by addition of the manufacturer's Stop Solution, produces the result which can be measured colorimetrically.
# [3] = system: HUVECs; assay: HUVEC scratch migration assay; assay type: cell-based, human; settings: for Mean pixels (gap): 24 hours, diluent control 1264.00
# Description: Passage 8 HUVECs, lot number 8750 (obtained from Lonza), were plated in 6-well plates (ICS BioExpress) in endothelial growth medium-2 (EGM-2) complete medium (obtained from Lonza). […] The monolayers were then “scratched” with a 1000 μl pipet tip and washed two times with warm EGM-2 medium. […] The wells were photographed again. The gaps were measured in each photograph using Adobe Photoshop software, and gap measurements are presented as the number of pixels in the gap.
# [4] = system: RhoA; assay: Rho activation assay (GLISA) in retinal endothelial cells; assay type: cell-based, human
# Description: This experiment was performed using a commercially-available Rho activation assay (GLISA) purchased from Cytoskeleton, Denver, Colo., following the manufacturer's protocol. […] Test compounds diluted in HBSS were placed in the incubator to equilibrate before addition to the cells. Then, 150 μl of each test compound was added to the appropriate culture wells, and the plates were incubated in the incubator for an additional 15 minutes. Then, thrombin was added to appropriate wells. After 1 minute, the cells were washed one time with 1.5 ml phosphate buffered saline and were then lysed with 100 μl GLISA lysis buffer supplemented with protease inhibitors. The extracts were scraped, transferred to microcentrifuge tubes and transferred to ice to preserve the active form of RhoA. All extracts were then cleared of debris by spinning at 10,000 rpms for 2 minutes at 4° C. The supernatants were transferred to new tubes and placed back on ice. Aliquots of each extract were removed for the GLISA assay and for protein determinations. All protein concentrations were within 10%, and the extracts were used at the achieved concentrations (equates to 15 μg total protein per well). The GLISA assay was performed using the reagents supplied in the kit.
# [5] = system: HUVECs; assay: HUVEC tube formation on matrigel plugs; assay type: cell-based, human; settings: 18 hours, 5% FCS
# Description: To investigate the formation of capillary-like structures by HUVECs, the Angiogenesis System Endothelial Cell Tube Formation Assay was purchased from BD Biosciences (San Jose, Calif.) and used according to the manufacturer's protocol. In brief, 100,000 HUVECs were seeded onto rehydrated matrigel plugs in 96 well tissue culture plates in the presence of 5% FCS to induce tube formation. […] After 18 hours the wells were photographed using a Kodak DCS Pro SLR/N digital camera (Rochester, N.Y.) mounted on an inverted microscope. Ethanol treated wells were included to determine if the vehicle had any effects on cell differentiation.
# [6] = system: human renal glomerular microvascular endothelial cells; assay: ECIS resistance (Example 12), glomerular cells; settings: danazol 1 μM alone
# [7] = system: human retinal endothelial cells; assay: Actin stress fiber formation, rhodamine-phalloidin staining, TNFα (Example 7); settings: 30 minutes
# [8] = system: human retinal endothelial cells; assay: Actin stress fiber formation, rhodamine-phalloidin staining, VEGF (Example 8); assay type: cell-based; settings: for change of the VEGF stress fiber pattern: then VEGF 25 ng/ml 30 minutes; for F-actin staining pattern: no VEGF
# Description: . […] To counter-stain for nuclei, 100 μl of a 3 μM DAPI (4,6-diamidino-2-phenylindole, dilactate (Invitrogen)) solution was added to each well. After 5 minutes, the cells were washed two times with 100 μl PBS.
# [9] = passage 8 cells, 0.1 U/ml Thrombin + 1.0 μM compound
# [10] = passage 12 cells, 0.1 U/ml Thrombin + 1.0 μM compound
compound,measurement,setting,value
"C#C[C@]1(O)CC[C@H]2[C@@H]3CCC4=Cc5oncc5C[C@]4(C)[C@H]3CC[C@@]21C [Danazol, 17α-pregna-2,4-dien-20-yno[2,3-d]-isoxazol-17β-ol]",F-actin staining pattern,[1]; 15 minutes,perinuclear staining
same,F-actin staining pattern,[1]; 3 hours,diffuse staining throughout the cells with ruffled edges on many of the cells
same,F-actin staining pattern,[1]; 24 hours,staining similar to untreated controls
same,effect on S1P-induced cortical actin rings,[1]; danazol 1 μM with S1P 1 μM,seemed to enhance the cortical rings at 3 hours
same,effect on TNFα-induced stress fibers,"[1]; danazol 1 μM with TNFα 1 ng/ml, all times",decreased the stress fiber formation and/or the thickness of the fibers at all times
same,PERCENT INCREASE IN AKT PHOSPHORYLATION VERSUS CONTROL,[2]; 0.5 μM danazol,73.8%
same,PERCENT INCREASE IN AKT PHOSPHORYLATION VERSUS CONTROL,[2]; 1.0 μM danazol,66.7%
same,PERCENT INCREASE IN AKT PHOSPHORYLATION VERSUS CONTROL,[2]; 2.0 μM danazol,101.6%
same,PERCENT INCREASE IN AKT PHOSPHORYLATION VERSUS CONTROL,[2]; 5.0 μM danazol,40.5%
same,PERCENT INCREASE IN AKT PHOSPHORYLATION VERSUS CONTROL,[2]; 10.0 μM danazol,115.3%
same,PERCENT INCREASE IN AKT PHOSPHORYLATION VERSUS CONTROL,[2]; 20.0 μM danazol,161.3%
same,PERCENT INCREASE IN AKT PHOSPHORYLATION VERSUS CONTROL,[2]; 50.0 μM danazol,98.6%
same,Mean pixels (gap),[3]; Danazol 10 μM,1004.00 pixels
same,Mean pixels (gap),[3]; Danazol 25 μM,1184.00 pixels
same,Mean pixels (gap),[3]; Danazol 50 μM,895.33 pixels
same,Mean pixels (gap),[3]; Danazol 75 μM,317.33 pixels
same,Mean pixels (gap),[3]; Danazol 100 μM,178.67 pixels
same,inhibition at 10 µM,"[3]; Homo sapiens, HUVEC, 24 h",21.1%
same,inhibition at 25 µM,"[3]; Homo sapiens, HUVEC, 24 h",5.5%
same,inhibition at 50 µM,"[3]; Homo sapiens, HUVEC, 24 h",27.6%
same,inhibition at 75 µM,"[3]; Homo sapiens, HUVEC, 24 h",74.6%
same,inhibition at 100 µM,"[3]; Homo sapiens, HUVEC, 24 h",85.9%
same,Percent Inhibition vs. Untreated Control,"[4]; passage 8 cells, 1.0 μM",73.89%
same,Mean OD (active RhoA),"[4]; passage 8 cells, 1.0 μM, no thrombin, Untreated 0.102",0.027
same,Mean OD (active RhoA),[4]; [9],0.373
same,Percent Inhibition vs. Thrombin,[4]; [9],41.02%
same,Percent Inhibition vs. Untreated Control,"[4]; passage 12 cells, 1.0 μM",6.82%
same,Mean OD (active RhoA),"[4]; passage 12 cells, 1.0 μM, no thrombin, Untreated 0.455",0.424
same,Mean OD (active RhoA),[4]; [10],0.859
same,Percent Inhibition vs. Thrombin,[4]; [10],27.57%
same,effect on tube formation,[5]; 1 μM,no effect on tube formation
same,effect on tube formation,[5]; 10 μM,no effect on tube formation
same,effect on tube formation,[5]; 50 μM,effective inhibitor of tube formation
same,period of greatest increase of ECIS,[6],60 to 90 h
same,effect on stress fiber development with TNFα,"[7]; danazol 0.1 μM or 10 μM, TNFα 50 ng/ml",decreased the number of cells exhibiting stress fiber development
same,F-actin staining pattern,[7]; danazol 0.1 μM,diffuse staining throughout the cytoplasm
same,F-actin staining pattern,[7]; danazol 10.0 μM,stress fibers with multiple focal points
same,change of the VEGF stress fiber pattern,[8]; danazol 0.1 μM 30 minutes,made the stress fibers less pronounced and some diffuse staining appeared
same,F-actin staining pattern,[8]; danazol 0.1 μM,diffuse F-actin staining throughout the cytoplasm
same,change of the VEGF stress fiber pattern,[8]; danazol 1.0 μM 30 minutes,"showed fewer thick stress fibers, but focal points were seen on contact surfaces"
same,F-actin staining pattern,[8]; danazol 1.0 μM,"the diffuse staining persisted, but stress fibers and focal points around the perimeter of most cells were visible"
same,change of the VEGF stress fiber pattern,[8]; danazol 10.0 μM 30 minutes,showed strong stress fiber development with focal points
same,F-actin staining pattern,[8]; danazol 10.0 μM,stress fiber development and focal points were seen
